Values quoted from earlier work as cited in patent US6599527B1, “Preparation of pharmaceutical compositions” (Phares Pharmaceutical Research N.V., priority 1997, dated 2003).

Conditions: in vivo

phosphatidylcholine [phosphatidylcholine (PC)]
fraction entering the GI tract that is absorbed: Over 90%
